Experiment [1] deals with T1, OTRPC4 (Mus musculus, UniProt Q9EPK8).
T1 construct: expressed in transfected cells; host or cells: HEK293 (transient, FuGENE 6)
Put plainly: FURA-2 single cell measurement of intracellular calcium in HEK293 cells transiently expressing OTRPC4-GFP. It is filed as cell-based, murine. As to conditions: for effect on cells which expressed OTRPC4: 10 μM. The source says:
The cDNA of OTRPC4 was cloned into a eukaryotic expression plasmid containing, at the C-terminal end, a green fluorescent protein (GFP) fusion section (pEGFP-N1). This plasmid was used for the subsequent expression studies. It can be inferred from the nucleotide sequence that the OTRPC4 protein may consist of 871 amino acids, for example, and contains 6 possible transmembranal segments with a sequence between segments 5 and 6 which possibly codes for a pore region of a channel (FIG. 1a). After transient transfection (which was carried out using the FuGENE 6 transfection reagent) of the expression plasmid coding for the OTRPC4-GFP fusion protein in HEK293 cells, dots of fluorescence could be detected in the plasma membrane 24-36 hours later. […] For the following experiments, HEK293 cells were transiently transfected with the above-mentioned expression plasmid containing OTRPC4 and compared, after 24-36 hours, with untransfected control cells.
The influence of extracellular osmolarity on the channel activity of OTRPC4 was investigated. After reducing the osmolarity of the extracellular solution, there was a long, transient and reversible increase in the [Ca^2+]i in the OTRPC4 expressing cells but not in the control cells (FIG. 5). Increasing the osmolarity of the extracellular solution, on the other hand, reduced the [Ca^2+]i (cf. the small diagram in FIG. 4). A significant change in the [Ca^2+]i was observed even when the extracellular solution was changed by 30 mosmol/l. The changes in [Ca^2+]i triggered by changing the osmolarity of the extracellular solution occurred rapidly and reached a peak after about 30 seconds, but varied from cell to cell (see FIG. 4). After returning to the normoosmolar solution, [Ca^2+]i rapidly returned to its base value. In order to distinguish between an influx of calcium from the extracellular medium and a release of calcium from intracellular calcium stores, calcium was replaced by EGTA in the extracellular medium while the cells were exposed to a hypotonic medium. Under these conditions, the FURA-2 signal returned to the base value (see FIG. 4).
The members of the STRPC subfamily of the TRPC channels are activated by signals produced by the activation of the phospholipase C-β (PCL-β) (6-15).
The addition of capsaicin (10 μM) and resiniferatoxin (10 μM) as well as a brief increase in the temperature to 65° C. had no effect on cells which expressed OTRPC4.
On the technique in general: Calcium assays in cells follow changes in intracellular calcium, usually with a dye or a luminescent sensor.

Experiment [2] concerns the target T1, OTRPC4. Put plainly: FURA-2 measurement of intracellular Ca2+ with luminiscence spectrometer in OTRPC4 transfected HEK293 cells. It is filed as cell-based, murine. As to conditions: 100 μM; osmolarity lowered from 320 mosmol/l to 220 mosmol/l. The protocol: For testing the function of OTRPC4 transfected HEK293 cells with a further method, intracellular Ca^2+ concentration was measured with FURA-2. The experiments were conducted with luminiscence spectrometer (LS 50 B, Perkin Elmer).
For determining the extent of calcium influx into the cells, maximal intracellular Ca^2+ was induced by lonomycin. This [Ca^2+]i could be reverted to its original value by EGTA. Influx of extracellular calcium via OTRPC4 was demostrated by showing change of the intracellular Ca^2+ concentration by lowering osmolarity by 100 mosmol/l (from 320 mosmol/l to 220 mosmol/l). The hypotonic solution led to an increase in [Ca^2+]i which could be quenched by EGTA. Half of the [Ca^2+] increasing effect of hypotonic solution could be blocked by addition of LOE908 (Embaco A, Romanin C, Birke F W, Kukovetz W R, Groschner K: Inhibition of a store-operated Ca2+ entry pathway in human endothelial cells by the isoquinoline derivative LOE 908. British Journal of Pharmacology (1996) 119 702-706) (100 μM) (FIG. 10).

Experiment [3] has as its target T1, OTRPC4. Put plainly: Perforated patch measurement of cation currents triggered by hypotonic solution in OTRPC4-expressing cells. It is filed as cell-based, murine. As to conditions: 50 μM. The procedure:
(§1) Because of the rapid “run-down” of the ion fluxes, the other experiments were carried out using the so-called perforated patch method. Measured in standard extracellular solution, the current-voltage curve, measured by applying voltage ramps, show an outwardly rectifying form with a reverse potential of about 0 mV (FIG. 6). When the Na^+- and Ca^2+-ions were removed from the extracellular solution, the inward flux disappeared and the reverse potential moved into the negative area. The average ion fluxes at −100 and +100 mV measured with the aid of ramp protocols were −12.8±1.1 and +32.2±2.7 pA/pF, respectively (n=17, Cm=9.6±5.5 pF).
(§2) Replacing the extracellular standard solution with a solution which contained 100 mM NaCl and 100 mM mannitol (osmolarity: 320 mosmol/l) shifted Er to a more negative potential (−11.2±1.6 mV, n=14), as might be expected from a current carried by cations when the extracellular sodium concentration is reduced (see FIG. 6). Moreover, the inwardly and outwardly directed current components were reduced (−7.0±0.8 and 22.7±2.7 pA/pF at −100 and 100 mV, respectively) (see FIG. 6). The use of a hypoosmolar solution (215 mosmol/l) led, after a delay of a few seconds (about 18 seconds on average) to an increase in both the inwardly and outwardly directed currents (FIG. 7). This increase reached its maximum after 50 seconds, on average. […]

The subject of experiment [4] is chloride channels activated by a change in volume. Put plainly: Perforated patch measurement of currents triggered by hypotonic extracellular solution in control cells. It is filed as cell-based. As to conditions: 50 μM. The procedure:
as §1, §2

The structures appear in SMILES notation.

T1 sequence (Q9EPK8 whole entry): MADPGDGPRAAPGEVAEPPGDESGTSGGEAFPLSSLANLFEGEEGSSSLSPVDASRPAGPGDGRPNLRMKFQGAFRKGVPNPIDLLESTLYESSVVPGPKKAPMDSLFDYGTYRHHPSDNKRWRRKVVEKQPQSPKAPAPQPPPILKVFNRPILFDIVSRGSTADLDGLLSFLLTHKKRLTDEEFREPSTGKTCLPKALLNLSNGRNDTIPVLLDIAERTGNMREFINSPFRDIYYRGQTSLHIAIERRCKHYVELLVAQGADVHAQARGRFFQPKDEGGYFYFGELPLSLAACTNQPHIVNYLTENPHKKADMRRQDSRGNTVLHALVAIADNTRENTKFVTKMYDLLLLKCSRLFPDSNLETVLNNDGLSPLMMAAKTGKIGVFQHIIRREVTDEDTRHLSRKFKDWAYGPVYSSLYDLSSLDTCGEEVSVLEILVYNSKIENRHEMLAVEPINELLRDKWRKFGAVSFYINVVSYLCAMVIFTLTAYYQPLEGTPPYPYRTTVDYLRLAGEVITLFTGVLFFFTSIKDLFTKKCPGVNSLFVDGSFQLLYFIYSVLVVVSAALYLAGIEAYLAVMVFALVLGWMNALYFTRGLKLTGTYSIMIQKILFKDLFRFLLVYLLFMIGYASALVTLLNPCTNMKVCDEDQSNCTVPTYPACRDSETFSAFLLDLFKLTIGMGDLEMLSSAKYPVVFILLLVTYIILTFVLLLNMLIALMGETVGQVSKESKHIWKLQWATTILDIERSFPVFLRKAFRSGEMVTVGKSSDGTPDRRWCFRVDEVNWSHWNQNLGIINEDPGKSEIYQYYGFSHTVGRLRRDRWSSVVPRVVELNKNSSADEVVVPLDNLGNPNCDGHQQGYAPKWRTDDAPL

For the compound `[Cl][Gd]([Cl])[Cl]` [GdCl3], on OTRPC4 [1] (1 mM, HEK293 cells expressing OTRPC4), the “effect on the influx of calcium into OTRPC4-expression cells triggered by hypoosmolarity” value is “no effect”.

With `COc1cc2c(cc1OC)C(C(C(=O)N(CCc1ccc(OC)c(OC)c1OC)CCc1ccc(OC)c(OC)c1OC)c1ccccc1)=NCC2` (centres unmarked) [LOE908], at OTRPC4 [2], the “block of the [Ca2+] increasing effect of hypotonic solution” value is reported as “Half”.

Turning to `[Cl][La]([Cl])[Cl]` [LaCl3], the “inhibition of the influx of calcium into OTRPC4-expression cells triggered by hypoosmolarity” value at OTRPC4 [1] (100 μM, HEK293 cells expressing OTRPC4) is “about 50%”.

Regarding `O=C(O)c1cc([N+](=O)[O-])ccc1NCCCc1ccccc1` [NPPB], the “cation currents in OTRPC4-expressing cells triggered by hypotonic solution” value on OTRPC4 [3] is “unaffected”. Further, the “activation of currents triggered by hypotonic extracellular solution in control cells” value in experiment [4] was “inhibited completely”.

With `COc1cc(CNC(=O)CCCC/C=C/C(C)C)ccc1O` [capsaicin], the “effect on cells which expressed OTRPC4” value on OTRPC4 [1] was “no effect”.

For the compound `C=C(C)[C@]12C[C@@H](C)[C@@]34O[C@](Cc5ccccc5)(O[C@@H]1[C@@H]3C=C(COC(=O)Cc1ccc(O)c(OC)c1)C[C@]1(O)C(=O)C(C)=C[C@@H]41)O2` [resiniferatoxin], at OTRPC4 [1], the “effect on cells which expressed OTRPC4” value is “no effect”.

In the case of `C/C=C(/C)C(=O)O[C@H]1C(C)=C2[C@H]([C@@H]1OC(=O)CCCCCCC)[C@@](C)(OC(C)=O)C[C@H](OC(=O)CCC)[C@@]1(O)[C@H]2OC(=O)[C@@]1(C)O` [thapsigargin], the “amplitude of the FURA-2 signal triggered by the hypotonic medium after emptying the intracellular stores” value at OTRPC4 [1] (5 μM, added previously, OTRPC4-expressing cells) was “did not alter the amplitude”.

The record behind these values is US20030120049A1, “Non-selective cation channel” (priority 2000, published 2003).
